Experiments:
Experiment in all cases: KINOMEscan competition binding
Conditions in all cases: compound 10.0 µM
PIP5K1A (human) = PIP5K1A (human) (UniProt Q99755)
MAP2K4 (human) = MAP2K4 (human) (UniProt P45985)
PTK6 (human) = PTK6 (human) (UniProt Q13882)
ACVR2B (human) = ACVR2B (human) (UniProt Q13705)
MAPK8 (human) = MAPK8 (human) (UniProt P45983)
[1] = tested on: KIT (human), P10721 [L576P]
[2] = tested on: PIK3CA (human), P42336 [E545K]
CDK19 (human) = CDK19 (human) (UniProt Q9BWU1)
CDK4 CCND1 (human) = CDK4 CCND1 (human) (UniProt P11802+P24385)
CDK4 CCND1 (human), sequence (P11802 whole entry, looked up): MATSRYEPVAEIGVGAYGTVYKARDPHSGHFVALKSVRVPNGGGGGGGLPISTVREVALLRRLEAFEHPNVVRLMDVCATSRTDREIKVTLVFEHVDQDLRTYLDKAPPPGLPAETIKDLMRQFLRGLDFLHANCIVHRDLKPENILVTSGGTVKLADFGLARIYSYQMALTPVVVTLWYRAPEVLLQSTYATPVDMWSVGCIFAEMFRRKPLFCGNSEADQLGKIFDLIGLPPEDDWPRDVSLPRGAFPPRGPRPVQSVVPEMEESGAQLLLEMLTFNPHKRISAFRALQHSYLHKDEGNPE
CDK4 CCND1 (human), sequence (P24385 whole entry, looked up): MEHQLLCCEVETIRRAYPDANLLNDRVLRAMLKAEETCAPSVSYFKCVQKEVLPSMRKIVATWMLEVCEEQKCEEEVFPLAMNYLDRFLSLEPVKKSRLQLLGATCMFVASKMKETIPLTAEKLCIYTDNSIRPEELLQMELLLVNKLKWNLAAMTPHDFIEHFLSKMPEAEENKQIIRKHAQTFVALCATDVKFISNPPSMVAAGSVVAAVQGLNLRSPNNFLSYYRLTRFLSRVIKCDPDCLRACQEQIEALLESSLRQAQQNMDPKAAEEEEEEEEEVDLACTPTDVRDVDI

[3] = tested on: FLT3 (human), P36888 [ITD]
NEK6 (human) = NEK6 (human) (UniProt Q9HC98)
TAOK3 (human) = TAOK3 (human) (UniProt Q9H2K8)
BMX (human) = BMX (human) (UniProt P51813)
MYO3A (human) = MYO3A (human) (UniProt Q8NEV4)
MYO3A (human), sequence (Q8NEV4 whole entry, looked up): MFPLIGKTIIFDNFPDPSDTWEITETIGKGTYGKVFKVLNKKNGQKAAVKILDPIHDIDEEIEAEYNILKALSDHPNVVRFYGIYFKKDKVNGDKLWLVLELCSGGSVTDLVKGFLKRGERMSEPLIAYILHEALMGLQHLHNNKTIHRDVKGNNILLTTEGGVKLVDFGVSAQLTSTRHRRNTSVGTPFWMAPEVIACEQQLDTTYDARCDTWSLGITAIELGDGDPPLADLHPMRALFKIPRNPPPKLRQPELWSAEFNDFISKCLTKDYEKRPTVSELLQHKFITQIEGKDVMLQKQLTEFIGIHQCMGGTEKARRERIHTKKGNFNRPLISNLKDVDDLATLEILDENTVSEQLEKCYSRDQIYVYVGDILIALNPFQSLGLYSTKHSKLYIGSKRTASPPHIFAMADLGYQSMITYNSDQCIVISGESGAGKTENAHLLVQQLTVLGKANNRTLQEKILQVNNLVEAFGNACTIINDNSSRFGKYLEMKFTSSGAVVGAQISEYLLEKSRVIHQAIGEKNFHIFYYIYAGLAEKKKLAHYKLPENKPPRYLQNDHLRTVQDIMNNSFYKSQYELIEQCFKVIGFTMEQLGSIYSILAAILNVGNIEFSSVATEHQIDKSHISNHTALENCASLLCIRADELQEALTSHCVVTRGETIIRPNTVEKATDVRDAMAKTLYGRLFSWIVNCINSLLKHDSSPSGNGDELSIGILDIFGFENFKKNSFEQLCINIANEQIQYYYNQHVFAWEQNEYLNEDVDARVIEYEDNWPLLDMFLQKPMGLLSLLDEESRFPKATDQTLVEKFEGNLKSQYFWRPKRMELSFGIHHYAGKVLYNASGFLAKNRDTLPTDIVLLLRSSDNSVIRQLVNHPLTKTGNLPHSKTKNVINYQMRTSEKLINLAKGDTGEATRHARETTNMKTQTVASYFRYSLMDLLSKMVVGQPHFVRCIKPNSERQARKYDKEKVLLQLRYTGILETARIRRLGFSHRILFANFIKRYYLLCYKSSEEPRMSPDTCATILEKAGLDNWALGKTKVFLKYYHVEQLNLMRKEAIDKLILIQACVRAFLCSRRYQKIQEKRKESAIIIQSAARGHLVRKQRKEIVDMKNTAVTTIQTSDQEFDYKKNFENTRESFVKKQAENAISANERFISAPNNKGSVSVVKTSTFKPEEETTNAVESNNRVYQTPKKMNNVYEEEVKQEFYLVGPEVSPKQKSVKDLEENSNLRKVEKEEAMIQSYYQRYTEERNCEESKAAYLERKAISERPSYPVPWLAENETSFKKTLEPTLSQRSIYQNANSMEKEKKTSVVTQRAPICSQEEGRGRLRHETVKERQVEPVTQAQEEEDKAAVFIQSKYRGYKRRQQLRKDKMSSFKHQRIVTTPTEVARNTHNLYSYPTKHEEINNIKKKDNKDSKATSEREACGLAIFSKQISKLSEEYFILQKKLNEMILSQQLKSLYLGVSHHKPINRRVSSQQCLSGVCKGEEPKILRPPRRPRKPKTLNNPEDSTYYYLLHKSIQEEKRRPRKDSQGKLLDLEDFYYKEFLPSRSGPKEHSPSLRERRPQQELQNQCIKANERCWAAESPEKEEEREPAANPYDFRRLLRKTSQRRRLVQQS

NTRK1 (human) = NTRK1 (human) (UniProt P04629)
PRKCH (human) = PRKCH (human) (UniProt P24723)
[4] = tested on: RET (human), P07949 [M918T]
CAMK1D (human) = CAMK1D (human) (UniProt Q8IU85)
BRAF (human) = BRAF (human) (UniProt P15056)
MAP4K5 (human) = MAP4K5 (human) (UniProt Q9Y4K4)
ACVRL1 (human) = ACVRL1 (human) (UniProt P37023)
PLK2 (human) = PLK2 (human) (UniProt Q9NYY3)
NEK4 (human) = NEK4 (human) (UniProt P51957)
FGFR2 (human) = FGFR2 (human) (UniProt P21802)
DYRK1A (human) = DYRK1A (human) (UniProt Q13627)
[5] = tested on: PIK3CA (human), P42336 [E545A]
RAF1 (human) = RAF1 (human) (UniProt P04049)
PLK1 (human) = PLK1 (human) (UniProt P53350)
PLK1 (human), sequence (P53350 whole entry, looked up): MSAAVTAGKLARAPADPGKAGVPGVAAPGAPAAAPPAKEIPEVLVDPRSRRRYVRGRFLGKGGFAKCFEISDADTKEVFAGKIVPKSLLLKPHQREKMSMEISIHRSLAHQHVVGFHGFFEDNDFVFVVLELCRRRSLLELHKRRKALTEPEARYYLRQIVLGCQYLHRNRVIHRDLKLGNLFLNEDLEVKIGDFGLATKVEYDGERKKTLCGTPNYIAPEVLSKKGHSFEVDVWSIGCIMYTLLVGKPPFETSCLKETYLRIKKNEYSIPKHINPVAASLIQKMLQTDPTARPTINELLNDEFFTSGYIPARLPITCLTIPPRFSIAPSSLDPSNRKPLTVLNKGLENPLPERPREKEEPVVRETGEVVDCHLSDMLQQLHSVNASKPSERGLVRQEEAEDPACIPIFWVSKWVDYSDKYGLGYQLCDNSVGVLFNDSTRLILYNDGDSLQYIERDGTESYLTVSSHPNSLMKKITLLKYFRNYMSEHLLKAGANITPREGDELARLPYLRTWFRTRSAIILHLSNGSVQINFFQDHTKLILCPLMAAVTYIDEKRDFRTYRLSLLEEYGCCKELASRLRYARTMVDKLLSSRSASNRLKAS

CAMK2D (human) = CAMK2D (human) (UniProt Q13557)
RIOK3 (human) = RIOK3 (human) (UniProt O14730)
MET (human) = MET (human) (UniProt P08581)
CDKL3 (human) = CDKL3 (human) (UniProt Q8IVW4)
MAP3K2 (human) = MAP3K2 (human) (UniProt Q9Y2U5)
CSNK1A1L (human) = CSNK1A1L (human) (UniProt Q8N752)
CDK2 (human) = CDK2 (human) (UniProt P24941)
MERTK (human) = MERTK (human) (UniProt Q12866)
RPS6KA2 KD2 (human) = RPS6KA2 KD2 (human) (UniProt Q15349)
AAK1 (human) = AAK1 (human) (UniProt Q2M2I8)
MAP3K12 (human) = MAP3K12 (human) (UniProt Q12852)
[6] = biological target: JAK1 JH2 pseudokinase (human) (UniProt P23458)
[7] = tested on: KIT (human), P10721 [V559D/T670I]
KIT (human), P10721 [V559D/T670I], sequence (P10721 whole entry V559D/T670I, looked up): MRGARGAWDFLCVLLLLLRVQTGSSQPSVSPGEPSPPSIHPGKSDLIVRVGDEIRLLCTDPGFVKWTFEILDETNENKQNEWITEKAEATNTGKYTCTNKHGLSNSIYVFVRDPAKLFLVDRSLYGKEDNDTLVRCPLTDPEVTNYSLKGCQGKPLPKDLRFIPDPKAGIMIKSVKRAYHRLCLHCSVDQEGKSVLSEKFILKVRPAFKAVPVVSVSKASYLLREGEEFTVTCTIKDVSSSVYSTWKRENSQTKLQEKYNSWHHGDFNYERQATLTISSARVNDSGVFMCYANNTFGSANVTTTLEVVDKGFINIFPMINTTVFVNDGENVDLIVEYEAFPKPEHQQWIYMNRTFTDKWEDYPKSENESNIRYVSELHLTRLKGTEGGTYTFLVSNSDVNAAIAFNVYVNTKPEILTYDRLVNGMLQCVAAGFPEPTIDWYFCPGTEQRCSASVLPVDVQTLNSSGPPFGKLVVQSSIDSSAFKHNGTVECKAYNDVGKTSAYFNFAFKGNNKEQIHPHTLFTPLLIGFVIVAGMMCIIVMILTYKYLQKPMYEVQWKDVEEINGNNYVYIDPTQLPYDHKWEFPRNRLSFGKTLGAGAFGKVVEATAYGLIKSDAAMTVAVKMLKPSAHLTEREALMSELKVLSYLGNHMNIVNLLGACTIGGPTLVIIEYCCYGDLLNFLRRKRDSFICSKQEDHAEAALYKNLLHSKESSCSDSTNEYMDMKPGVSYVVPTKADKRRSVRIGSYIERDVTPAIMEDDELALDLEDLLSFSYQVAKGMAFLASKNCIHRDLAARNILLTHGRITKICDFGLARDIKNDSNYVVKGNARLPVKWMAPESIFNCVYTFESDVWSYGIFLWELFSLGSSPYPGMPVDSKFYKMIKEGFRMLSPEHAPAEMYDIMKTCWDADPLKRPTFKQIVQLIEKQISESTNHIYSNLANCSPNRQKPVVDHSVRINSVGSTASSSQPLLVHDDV

KIT (human), P10721 [L576P], sequence (P10721 whole entry L576P, looked up): as the sequence (P10721 whole entry V559D/T670I, looked up) above, with D559V, L576P, I670T counted along it
MAP2K4 (human), sequence (P45985 whole entry, looked up): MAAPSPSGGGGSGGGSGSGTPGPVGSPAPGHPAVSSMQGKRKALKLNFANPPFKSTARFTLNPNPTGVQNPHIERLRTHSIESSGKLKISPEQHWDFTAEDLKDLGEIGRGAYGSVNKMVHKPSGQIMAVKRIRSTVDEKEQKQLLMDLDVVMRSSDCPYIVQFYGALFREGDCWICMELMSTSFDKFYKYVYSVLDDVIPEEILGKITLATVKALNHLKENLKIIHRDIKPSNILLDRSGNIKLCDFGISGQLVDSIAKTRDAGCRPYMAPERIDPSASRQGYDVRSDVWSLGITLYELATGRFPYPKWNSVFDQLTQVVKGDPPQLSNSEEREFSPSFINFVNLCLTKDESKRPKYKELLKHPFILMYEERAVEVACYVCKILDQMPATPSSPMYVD
PIP5K1A (human), sequence (Q99755 whole entry, looked up): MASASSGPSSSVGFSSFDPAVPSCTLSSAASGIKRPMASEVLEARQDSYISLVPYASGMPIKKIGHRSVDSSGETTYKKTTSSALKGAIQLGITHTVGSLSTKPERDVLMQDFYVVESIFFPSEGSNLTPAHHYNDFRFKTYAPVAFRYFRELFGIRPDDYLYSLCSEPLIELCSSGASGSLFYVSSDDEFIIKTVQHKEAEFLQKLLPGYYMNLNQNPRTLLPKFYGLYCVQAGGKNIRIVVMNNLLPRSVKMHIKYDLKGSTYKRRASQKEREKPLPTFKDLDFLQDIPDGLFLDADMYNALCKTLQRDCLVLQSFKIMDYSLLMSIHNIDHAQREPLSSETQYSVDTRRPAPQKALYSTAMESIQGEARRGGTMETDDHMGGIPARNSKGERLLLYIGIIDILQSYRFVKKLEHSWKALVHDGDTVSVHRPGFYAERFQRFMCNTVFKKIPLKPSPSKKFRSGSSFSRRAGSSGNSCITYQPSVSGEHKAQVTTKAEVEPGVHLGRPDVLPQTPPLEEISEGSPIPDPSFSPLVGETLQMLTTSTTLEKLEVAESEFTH

| Structure (SMILES) | kinase still bound, per cent of control (PIP5K1A (human)) [%] | kinase still bound, per cent of control (MAP2K4 (human)) [%] | kinase still bound, per cent of control (PTK6 (human)) [%] | kinase still bound, per cent of control (ACVR2B (human)) [%] | kinase still bound, per cent of control (MAPK8 (human)) [%] | kinase still bound, per cent of control [1] [%] | per cent of control (CDK19 (human)) [%] | per cent of control (CDK4 CCND1 (human)) [%] | kinase still bound, per cent of control (NEK6 (human)) [%] | kinase still bound, per cent of control (TAOK3 (human)) [%] | kinase still bound, per cent of control (MYO3A (human)) [%] | kinase still bound, per cent of control (NTRK1 (human)) [%] | kinase still bound, per cent of control (PRKCH (human)) [%] | kinase still bound, per cent of control [4] [%] | kinase still bound, per cent of control (BRAF (human)) [%] | kinase still bound, per cent of control (MAP4K5 (human)) [%] | kinase still bound, per cent of control (ACVRL1 (human)) [%] | kinase still bound, per cent of control (PLK2 (human)) [%] | kinase still bound, per cent of control (NEK4 (human)) [%] | kinase still bound, per cent of control (FGFR2 (human)) [%] | other results |
| --- | --- | --- | --- | --- | --- | --- | --- | --- | --- | --- | --- | --- | --- | --- | --- | --- | --- | --- | --- | --- | --- |
| CCC(=O)N1CCN(c2ccc(-n3c(=O)ccc4cnc5ccc(-c6cnc7ccccc7c6)cc5c43)cc2C(F)(F)F)CC1 | 89 | 30 | 51 | 42 | 22 | 48 | 1.2 | 100 | 99 | 76 | 100 | 64 | 92 | 51 | 59 | 8.1 | 83 | 85 | 86 | 55 | kinase still bound, per cent of control [2]: 0.6%; kinase still bound, per cent of control [3]: 29%; kinase still bound, per cent of control (BMX (human)): 59%; kinase still bound, per cent of control (CAMK1D (human)): 88%; kinase still bound, per cent of control (DYRK1A (human)): 71%; kinase still bound, per cent of control [5]: 1%; kinase still bound, per cent of control (RAF1 (human)): 48%; kinase still bound, per cent of control (PLK1 (human)): 85%; kinase still bound, per cent of control (CAMK2D (human)): 72%; kinase still bound, per cent of control (RIOK3 (human)): 90%; kinase still bound, per cent of control (MET (human)): 84%; per cent of control (CDKL3 (human)): 92%; kinase still bound, per cent of control (MAP3K2 (human)): 62%; kinase still bound, per cent of control (CSNK1A1L (human)): 81%; per cent of control (CDK2 (human)): 6.2%; kinase still bound, per cent of control (MERTK (human)): 53%; kinase still bound, per cent of control (RPS6KA2 KD2 (human)): 85%; kinase still bound, per cent of control (AAK1 (human)): 75%; per cent of control (MAP3K12 (human)): 100%; kinase still bound, per cent of control [6]: 76% |
| CC(C)n1nc(-c2cc3cc(O)ccc3[nH]2)c2c(N)ncnc21 | 62 | 3.4 | 32 | 2 | 89 | 0.8 | 24 | 60 | 100 | 4.7 | 12 | 46 | 10 | 0 | 5.8 | 72 | 6.7 | 13 | 90 | 5.8 | kinase still bound, per cent of control (DYRK1A (human)): 27%; kinase still bound, per cent of control (RAF1 (human)): 41%; kinase still bound, per cent of control (PLK1 (human)): 87%; kinase still bound, per cent of control (CAMK2D (human)): 69%; kinase still bound, per cent of control (RIOK3 (human)): 83%; kinase still bound, per cent of control (MET (human)): 73%; per cent of control (CDKL3 (human)): 100%; kinase still bound, per cent of control (MAP3K2 (human)): 4.8%; per cent of control (CDK2 (human)): 69%; kinase still bound, per cent of control (MERTK (human)): 61%; kinase still bound, per cent of control (RPS6KA2 KD2 (human)): 62%; kinase still bound, per cent of control (AAK1 (human)): 31%; per cent of control (MAP3K12 (human)): 84%; kinase still bound, per cent of control [6]: 0.2%; kinase still bound, per cent of control [7]: 30% |

— the kinase profiling compilation of Christmann-Franck et al. (2016)
